Results as given in ChEMBL document CHEMBL1201862, “PubChem BioAssay data set” (2004).
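Following 48 hours of exposure in 96-well plates, responses at five concentrations were used to interpolate endpoints linearly. At the GI50, growth is halved.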 Calls of active or inactive are those of the source. Rule as the data show it: active = GI50 up to about 1.1 µM and inactive = higher.

How the values were obtained:
Experiment in all cases: inhibition of tumour cell growth, NCI panel, 48 h
NCI/ADR-RES = test system: NCI/ADR-RES
MDA-MB-231 = test system: MDA-MB-231
SN12C = test system: SN12C
OVCAR-8 = test system: OVCAR-8
UACC-62 = test system: UACC-62
RXF 393 = test system: RXF 393
PC-3 = test system: PC-3
UO-31 = test system: UO-31
DU-145 = test system: DU-145
MOLT-4 = test system: MOLT-4
NCI-H460 = test system: NCI-H460
SNB-19 = test system: SNB-19
Malme-3M = test system: Malme-3M
OVCAR-4 = test system: OVCAR-4
CAKI-1 = test system: CAKI-1
MCF7 = test system: MCF7
SK-MEL-2 = test system: SK-MEL-2
U-251 = test system: U-251
NCI-H23 = test system: NCI-H23
HL-60 = test system: HL-60
MDA-MB-435 = test system: MDA-MB-435
SF-295 = test system: SF-295
CCRF-CEM = test system: CCRF-CEM
786-0 = test system: 786-0
HCT-116 = test system: HCT-116
SK-MEL-28 = test system: SK-MEL-28
ACHN = test system: ACHN
T47D = test system: T47D
SR = test system: SR
SNB-75 = test system: SNB-75
IGROV-1 = test system: IGROV-1
SK-MEL-5 = test system: SK-MEL-5
BT-549 = test system: BT-549
HOP-62 = test system: HOP-62
RPMI-8226 = test system: RPMI-8226
HOP-92 = test system: HOP-92
SW-620 = test system: SW-620
HCT-15 = test system: HCT-15
A549 = test system: A549
HCC 2998 = test system: HCC 2998
UACC-257 = test system: UACC-257
NCI-H522 = test system: NCI-H522
MDA-N = test system: MDA-N
KM12 = test system: KM12
TK-10 = test system: TK-10
Hs-578T = test system: Hs-578T
LOX IMVI = test system: LOX IMVI
K562 = test system: K562
EKVX = test system: EKVX
OVCAR-3 = test system: OVCAR-3
NCI-H226 = test system: NCI-H226
SK-OV-3 = test system: SK-OV-3
M14 = test system: M14
SF-268 = test system: SF-268
A498 = test system: A498
OVCAR-5 = test system: OVCAR-5
HT-29 = test system: HT-29
SF-539 = test system: SF-539
COLO 205 = test system: COLO 205

Q: With COc1cccc(C2c3cc4c(cc3OC(C)(N3CCCC3)C2C)OCO4)c1O (stereo not drawn) as the compound, how does the GI50 (NCI/ADR-RES) read?
A: 2.72 µM (inactive)

Q: What about the GI50 (MDA-MB-231) of the same compound?
A: 3.01 µM (inactive)

Q: And the GI50 (SN12C)?
A: 6.58 µM (inactive)

Q: And the GI50 (OVCAR-8)?
A: 7.87 µM (inactive)

Q: And the GI50 (UACC-62)?
A: 4.6 µM (inactive)

Q: And the GI50 (RXF 393)?
A: 2.89 µM (inactive)

Q: And the GI50 (PC-3)?
A: 3.32 µM (inactive)

Q: And the GI50 (UO-31)?
A: 10.9 µM (inactive)

Q: What about the GI50 (DU-145) of the same compound?
A: 3.52 µM (inactive)

Q: What about the GI50 (MOLT-4) of the same compound?
A: 6.64 µM (inactive)

Q: And the GI50 (NCI-H460)?
A: 5.5 µM (inactive)

Q: And the GI50 (SNB-19)?
A: 4.06 µM (inactive)

Q: What about the GI50 (Malme-3M) of the same compound?
A: 3.89 µM (inactive)

Q: What about the GI50 (OVCAR-4) of the same compound?
A: 13.3 µM (inactive)

Q: And the GI50 (CAKI-1)?
A: 5.83 µM (inactive)

Q: What about the GI50 (MCF7) of the same compound?
A: 3.47 µM (inactive)

Q: And the GI50 (SK-MEL-2)?
A: 4.98 µM (inactive)

Q: What about the GI50 (U-251) of the same compound?
A: 4.35 µM (inactive)

Q: What about the GI50 (NCI-H23) of the same compound?
A: 3.05 µM (inactive)

Q: What about the GI50 (HL-60) of the same compound?
A: 2.71 µM (inactive)

Q: What about the GI50 (MDA-MB-435) of the same compound?
A: 1.63 µM (inactive)

Q: What about the GI50 (SF-295) of the same compound?
A: 4.9 µM (inactive)

Q: What about the GI50 (CCRF-CEM) of the same compound?
A: 9.06 µM (inactive)

Q: What about the GI50 (786-0) of the same compound?
A: 4.71 µM (inactive)

Q: What about the GI50 (HCT-116) of the same compound?
A: 4.25 µM (inactive)

Q: What about the GI50 (SK-MEL-28) of the same compound?
A: 12.2 µM (inactive)

Q: And the GI50 (ACHN)?
A: 11.3 µM (inactive)

Q: What about the GI50 (T47D) of the same compound?
A: 12.1 µM (inactive)

Q: What about the GI50 (SR) of the same compound?
A: 2.06 µM (inactive)

Q: What about the GI50 (SNB-75) of the same compound?
A: 2.3 µM (inactive)

Q: What about the GI50 (IGROV-1) of the same compound?
A: 6.01 µM (inactive)

Q: What about the GI50 (SK-MEL-5) of the same compound?
A: 2.57 µM (inactive)

Q: And the GI50 (BT-549)?
A: 3.26 µM (inactive)

Q: What about the GI50 (HOP-62) of the same compound?
A: 7.98 µM (inactive)

Q: What about the GI50 (RPMI-8226) of the same compound?
A: 5.32 µM (inactive)

Q: And the GI50 (HOP-92)?
A: 11.5 µM (inactive)

Q: What about the GI50 (SW-620) of the same compound?
A: 4.01 µM (inactive)

Q: And the GI50 (HCT-15)?
A: 3.6 µM

Q: What about the GI50 (A549) of the same compound?
A: 6.7 µM (inactive)

Q: What about the GI50 (HCC 2998) of the same compound?
A: 8.09 µM (inactive)

Q: What about the GI50 (UACC-257) of the same compound?
A: 5.05 µM (inactive)

Q: And the GI50 (NCI-H522)?
A: 2.05 µM (inactive)

Q: And the GI50 (MDA-N)?
A: 1.93 µM (inactive)

Q: What about the GI50 (KM12) of the same compound?
A: 3.14 µM (inactive)

Q: What about the GI50 (TK-10) of the same compound?
A: 5.4 µM (inactive)

Q: What about the GI50 (Hs-578T) of the same compound?
A: 2 µM (inactive)

Q: And the GI50 (LOX IMVI)?
A: 4.82 µM (inactive)

Q: What about the GI50 (K562) of the same compound?
A: 3.45 µM (inactive)

Q: What about the GI50 (EKVX) of the same compound?
A: 7.91 µM (inactive)

Q: What about the GI50 (OVCAR-3) of the same compound?
A: 2.05 µM (inactive)

Q: And the GI50 (NCI-H226)?
A: 4.49 µM (inactive)

Q: What about the GI50 (SK-OV-3) of the same compound?
A: 3.44 µM (inactive)

Q: What about the GI50 (M14) of the same compound?
A: 3.08 µM (inactive)

Q: What about the GI50 (SF-268) of the same compound?
A: 8.22 µM (inactive)

Q: What about the GI50 (A498) of the same compound?
A: 6.4 µM (inactive)

Q: And the GI50 (OVCAR-5)?
A: 8.36 µM (inactive)

Q: What about the GI50 (HT-29) of the same compound?
A: 2.36 µM (inactive)

Q: And the GI50 (SF-539)?
A: 4.31 µM (inactive)

Q: What about the GI50 (COLO 205) of the same compound?
A: 3.13 µM (inactive)

Q: What does the source list for COc1ccc(/C=C2\CCC/C(=C\c3ccc(O)c(CN4CCCCC4)c3)C2=O)cc1?
A: GI50 (NCI/ADR-RES): 2.77 µM (inactive); GI50 (MDA-MB-231): 4.09 µM (inactive); GI50 (SN12C): 4.76 µM (inactive); GI50 (OVCAR-8): 2.81 µM (inactive); GI50 (UACC-62): 3.9 µM (inactive); GI50 (RXF 393): 20.3 µM (inactive); GI50 (PC-3): 4.74 µM (inactive); GI50 (UO-31): 6.75 µM (inactive); GI50 (DU-145): 9.02 µM (inactive); GI50 (MOLT-4): 2.59 µM (inactive); GI50 (NCI-H460): 4.98 µM (inactive); GI50 (SNB-19): 23.4 µM (inactive); GI50 (Malme-3M): 11.5 µM (inactive); GI50 (OVCAR-4): 22.2 µM (inactive); GI50 (CAKI-1): 11.1 µM (inactive); GI50 (MCF7): 3.73 µM (inactive); GI50 (SK-MEL-2): 11.2 µM (inactive); GI50 (U-251): 4.06 µM (inactive); GI50 (NCI-H23): 4.93 µM (inactive); GI50 (HL-60): 6.93 µM (inactive); GI50 (MDA-MB-435): 3.1 µM (inactive); GI50 (SF-295): 6.95 µM (inactive); GI50 (CCRF-CEM): 4.02 µM (inactive); GI50 (786-0): 4.17 µM (inactive); GI50 (HCT-116): 2.82 µM (inactive); GI50 (SK-MEL-28): 11.3 µM (inactive); GI50 (ACHN): 10.3 µM (inactive); GI50 (T47D): 19.3 µM (inactive); GI50 (SR): 1.35 µM (inactive); GI50 (SNB-75): 12.6 µM (inactive); GI50 (IGROV-1): 4.7 µM (inactive); GI50 (SK-MEL-5): 4.25 µM (inactive); GI50 (BT-549): 4.65 µM (inactive); GI50 (HOP-62): 12.4 µM (inactive); GI50 (RPMI-8226): 3.89 µM (inactive); GI50 (HOP-92): 9.79 µM (inactive); GI50 (SW-620): 3.33 µM (inactive); GI50 (HCT-15): 3.52 µM; GI50 (A549): 8 µM (inactive); GI50 (HCC 2998): 5.45 µM (inactive); GI50 (UACC-257): 4.76 µM (inactive); GI50 (NCI-H522): 2.96 µM (inactive); GI50 (MDA-N): 3.55 µM (inactive); GI50 (KM12): 2.3 µM (inactive); GI50 (TK-10): 5.77 µM (inactive); GI50 (Hs-578T): 11.5 µM (inactive); GI50 (LOX IMVI): 2.82 µM (inactive); GI50 (K562): 3.96 µM (inactive); GI50 (EKVX): 10 µM (inactive); GI50 (OVCAR-3): 10.8 µM (inactive); GI50 (NCI-H226): 6.67 µM (inactive); GI50 (SK-OV-3): 22.3 µM (inactive); GI50 (M14): 4.06 µM (inactive); GI50 (SF-268): 3.31 µM (inactive); GI50 (A498): 9.57 µM (inactive); GI50 (OVCAR-5): 22.5 µM (inactive); GI50 (HT-29): 2.3 µM (inactive); GI50 (SF-539): 3.08 µM (inactive); GI50 (COLO 205): 8.09 µM (inactive)
